Literature values as cited in patent publication US10260097B2, “Method of using a gene expression profile to determine cancer responsiveness to an anti-angiogenic agent” (Almac Diagnostics Limited, priority 2011, dated 2019).

Legend:
renal cancer patients = renal cancer patients receiving bevacizumab monotherapy
ovarian cancer patients = ovarian cancer patients receiving bevacizumab monotherapy
most cancers = conditions: bevacizumab added to cytotoxic chemotherapy
rectal cancer patients = rectal cancer patients receiving bevacizumab monotherapy

Substance: bevacizumab
- patients showing partial regression (renal cancer patients): 10%
- patients showing partial regression (ovarian cancer patients): 21%
- overall survival (OS) benefit (most cancers): no overall survival (OS) benefit
- patients showing partial regression (rectal cancer patients): 33%
